# Bridges are numbered along the chain shown (N, C = ends). [ ]: non-standard residue; d: D form. d2Nal = N[C@H](Cc1ccc2ccccc2c1)C(=O)O; dPhe(diCl) = diCl-D-Phe
# Columns and labels:
# MC4R = MC4R (Homo sapiens, UniProt P32245); conditions: cited from earlier work; for Selectivity (over MC3): MC4R over MC3; for Ki: read-out: Affinity for MC4R (Ki)
# adult neural stem cells [1] = experiment: ATP assay (intracellular ATP, cell number) in suspension cultures; type: cell-based, mice; conditions: for ATP levels: 1-100 nM, 3 days, suspension cultures, vs control
# Protocol: (§1) The anterior lateral wall of the lateral ventricle wall (LVW) of 5 week old mice was enzymatically dissociated at 37° C. for 20 min in 0.8 mg/mL hyaluronidase and 0.5 mg/mL trypsin in DMEM containing 4.5 mg/mL glucose and 80 units/mL DNase. The cells were diluted in 5 mL of DMEM/F12 medium (containing B27 supplement, […] HEPES Ph 7.4, 100 units/mL penicillin, and 100 micrograms/mL streptomycin). After passing through a 70 micron strainer, the cells were pelleted at 240×g for 5 minutes, washed and recentrifuged. The supernatant was subsequently removed and the cells resuspended in medium supplemented with 20 nanogram/mL EGF, plated out in culture dishes and incubated at 37° C. Neurosphere cultures were ready to be split approximately 7 days after plating.
# (§2) To split the neurosphere cultures, neurospheres were collected by centrifugation at 240×g for 5 minutes. The supernatant was discarded and the neurospheres were resuspended in 0.5 mL Trypsin/EDTA in HBSS (1×) and incubated at 37° C. for 2 minutes. During this period, the neurospheres were triturated gently to aid dissociation. Following a further 2 min incubation at 37° C. and trituration, 2 volumes of DMEM-F12+B27 medium were added. The cells were pelleted at 220×g for 4 min and resuspended in DMEM/F12+B27-medium containing 10 ng/mL EGF and 5 ng/mL bFGF. Subsequently the cultures were plated out and incubated at 37° C.
# Cells were harvested split as in example 1, except for omission of the growth factors in the media, and seeded as suspension cells, at a density of 10,000 cells/well on 96-well plates in DMEM/F12 supplemented with 1, 10 or 100 nM MC4R antagonist or without (control cells). Alternatively, adherent cells were seeded at a density of 30,000 cells/well on poly-D-lysine-coated 96-well plates in DMEM/F12 supplemented with 1% fetal calf serum (FCS). […]
# The following experiment was performed in quadruplicate. […] Intracellular ATP was measured using a Cell Viability kit SL according to the manufacturer's instructions (#188-441, BioThema, Sweden). […]
# [2] = target: melanocortin 4 receptor (MC4R), murine (Mus musculus) (UniProt P56450); experiment: cell-based or functional assay
# melanocortin 4 receptor (MC4R), murine (Mus musculus), sequence (P56450 whole entry): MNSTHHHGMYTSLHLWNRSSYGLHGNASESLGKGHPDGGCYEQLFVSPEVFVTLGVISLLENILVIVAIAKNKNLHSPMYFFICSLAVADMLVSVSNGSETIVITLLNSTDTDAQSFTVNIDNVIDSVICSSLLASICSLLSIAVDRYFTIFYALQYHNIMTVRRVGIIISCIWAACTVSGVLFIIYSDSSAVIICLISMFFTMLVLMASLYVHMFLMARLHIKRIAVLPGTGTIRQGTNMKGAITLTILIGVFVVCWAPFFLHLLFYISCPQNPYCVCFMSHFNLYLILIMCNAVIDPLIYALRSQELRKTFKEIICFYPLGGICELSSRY
# MC3 = MC3 (Homo sapiens, UniProt P41968); conditions: printed in the column Selectivity (over MC3); cited from earlier work
# MC3, sequence (P41968 whole entry, species assumed): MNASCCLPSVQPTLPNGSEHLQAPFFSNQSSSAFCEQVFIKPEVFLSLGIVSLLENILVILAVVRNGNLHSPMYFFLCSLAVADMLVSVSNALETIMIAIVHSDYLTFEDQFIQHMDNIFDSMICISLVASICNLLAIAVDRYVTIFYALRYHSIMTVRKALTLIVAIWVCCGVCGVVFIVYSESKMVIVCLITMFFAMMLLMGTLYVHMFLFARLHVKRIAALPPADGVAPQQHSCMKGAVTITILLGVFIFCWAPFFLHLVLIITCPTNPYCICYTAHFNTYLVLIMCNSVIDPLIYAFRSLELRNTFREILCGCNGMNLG
# [3] = tested on: 6-OHDA-lesioned rat model of Parkinson's disease; experiment: Amphetamine-induced rotation in the 6-OHDA-lesioned rat model of Parkinson's disease (Example 5); type: in vivo; conditions: 62.5 ng/day i.c.v. for 2 weeks
# Description: In this study, the neurorestorative action of HS014 (from Sigma Aldrich) was investigated in the 6-hydroxydopamine (6-OHDA)-lesioned rat model of Parkinson's disease where the animals have a partial, unilateral loss of dopaminergic neurons. The lesion is induced by a single injection of 6-OHDA in the median forebrain bundle (see below). Upon amphetamine stimulation, the lesioned animals will display ipsiversive rotational behavior due to the imbalance in dopamine release resulting from the unilateral loss of dopaminergic cells. This allows the functional effects of a compound tested in this model to be quantified by counting the number of amphetamine-induced rotations.
# Male Sprague-Dawley rats weighing 280-320 g were housed in a temperature-controlled room under a 12 h light/dark cycle with free access to food and water. Thirty minutes prior to surgery, animals were injected intraperitoneally with pargyline (5 mg/kg) and desipramine (25 mg/kg). Rats were then placed in a stereotactic frame under general anaesthesia (Halothane). A small bur-hole was made in the right side of the skull. Each animal was given a unilateral injection of 4 μg, 6-OHDA (in 2 μl sterile water with 0.1% ascorbic acid) into the right medial forebrain bundle at co-ordinates −2.8 mm from bregma, 2 mm lateral to the midline, and 8.6 mm below skull according to the atlas of Paxinos and Watson. The 6-OHDA injection was made over a 5 min period using a 5 μl Hamilton syringe. The rats were allowed to recover for 5 weeks following the lesion. The animals were then implanted with an Alzet minipump attached to a cannula to allow infusion of HS014 or vehicle into the right lateral ventricle over a period of 2 weeks. The Alzet minipump was removed […].
# 24 rats were divided into 2 groups, individual rats being randomly assigned to a treatment group based on their baseline rotation (5 weeks post lesion) so they were equally distributed. […] Rotational activity was measured by counting the total number of turns for the duration of the experiment. […] Body weight was also recorded weekly. […]
# [4] = tested on: neuronal stem/progenitor cell proliferation in the SVZ; conditions: i.c.v. infusion of 6.25, 62.5 or 625 ng/day for two weeks
# Protocol: To further characterize MC4R antagonist-stimulation of neogenesis, in vivo studies were performed. The effect of HS014 on proliferation (BrdU incorporation) was tested over a two week period at doses ranging from 6.25 to 625 ng/24h. Administration was done by i.c.v. infusion into the right lateral ventricle. BrdU was administered together with HS014 i.c.v. The animal's body weight was measured throughout the experiment. After termination of the experiment, BrdU expression was detected by immunohistochemistry on brain sections from the subependymal layer of the lateral ventricle wall as well as on the sub granular cells in dentate gyrus. […]
# As an additional marker for understanding whether a dose that is effective in eliciting a response controlled by the central nervous system, weight gain was also monitored throughout the experiment by weighing the animals. […]
# At the end of the experiment the rats were anaesthetized with sodium pentobarbital (120 mg, i.p.) and transcardially perfused with 90 ml of 0.9% NaCl and 4% PFA solution. […] As detection, Vectastain Elite (Vector) 1/100 was used and finally, developing was done by Sigma fast DAB tablet monitored in microscope, sections were then counterstained by HTX followed by dehydration and clearing.
# Quantification was performed using a Nikon eclipse E6000 microscope at a magnification of 40×. […]
# [5] = i.c.v. 2×1 nanomoles daily for 6 days or 0.16 nanomoles per hour for 2 weeks; cited from earlier work
# adult neural stem cells [6] = experiment: BrdU incorporation ELISA in adherent cultures; type: cell-based, mice; conditions: 1-100 nM, 3 days, vs control
# Protocol: as §1
# as §2, with “The cells were pelleted at 220×g for 4 min and resuspended in DMEM/F12+B27-medium containing 10 ng/mL EGF and 5 ng/mL bFGF. Subsequently the cultures were plated out and incubated at 37° C.” left out
# DNA synthesis is commonly used to measure cell proliferation. […] After incorporation if the thymidine analogue into DNA, BrdU was detected by immunoassay. […]
# [7] = Body weight during i.c.v. infusion (Example 4); type: in vivo, rats
# Protocol: BrdU was administered together with HS014 i.c.v.
# MC4R, sequence (P32245 whole entry, species assumed): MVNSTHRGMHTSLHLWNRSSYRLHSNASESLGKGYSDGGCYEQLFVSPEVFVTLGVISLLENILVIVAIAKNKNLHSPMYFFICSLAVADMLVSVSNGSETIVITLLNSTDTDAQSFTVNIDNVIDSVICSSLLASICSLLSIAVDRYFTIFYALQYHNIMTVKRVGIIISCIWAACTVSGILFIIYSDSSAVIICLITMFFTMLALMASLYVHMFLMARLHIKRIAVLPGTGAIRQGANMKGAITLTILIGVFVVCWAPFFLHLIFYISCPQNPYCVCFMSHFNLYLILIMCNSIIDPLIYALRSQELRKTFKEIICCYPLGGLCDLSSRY
compound,measurement,setting,value
HS024,Selectivity (over MC3),MC4R,20-fold
same,Ki,MC4R,0.29 nM
"Agouti (87-132): endogenous MC4R antagonist peptide analogue (TPLSAPCVATRNSCKPPAPACCDPCASCQCRFFRSACSCRVLSLNC; UniProt P42127 87-132, looked up, fragment)",increase in proliferation (ATP-assay),adult neural stem cells [1]; at 400 nM,1.6 times control
"[acetyl group]-Cys-Glu-His-(diCl-D-Phe)-Arg-Trp-Gly-Cys-Pro-Pro-Lys-Asp-[amide group] (Ac-CEH[dPhe(diCl)]RWGCPPKD-NH2; not fully specified (bridges); also: cyclic, bridge not given here) [HS028]",ATP levels,adult neural stem cells [1],increase ATP levels
same,Selectivity (over MC3),MC4R,80-fold
same,Ki,MC4R,0.95 nM
Agouti (87-132) (peptide),"proliferation in the ATP-assay, at 400 nM (times control)",[2],1.6
"NCCC(=O)N[C@H](Cc1ccc(Cl)cc1Cl)C(=O)N1CCN(c2ccccc2CNCCc2cccs2)CC1 [Compound10, 4-{(2R)-[3-Aminopropionylamido]-3-(2,4-dichlorophenyl)propionyl}-1-{2-[(2-thienyl)ethylaminomethyl]phenyl}piperazine]",potency in cAMP assay,MC3,No potency i cAMP
[acetyl group]-Cys-Glu-His-(D-2-Nal)-Arg-Trp-Gly-Cys-Pro-Pro-Lys-Asp-[amide group] (Ac-CEH[d2Nal]RWGCPPKD-NH2; disulfide 1-8 (inferred)) [HS014],persistence of improvement after administration was stopped,[3],maintained for at least two weeks
same,rotation at week 4 compared to pre-pump levels,[3]; then 2 weeks without treatment,approximately 30%
same,net ipsiversive rotations at weeks 1-4 compared to the pre-pump response,[3]; all P<0.01,significant reduction
same,ATP levels,adult neural stem cells [1],increase ATP levels
same,"dose with greatest effect on neuronal stem/progenitor cell proliferation (BrdU counts, SVZ)",[4],62.5 ng/day
same,food intake and body weight,[5],considerable increase in food intake and body weight
same,BrdU incorporation,adult neural stem cells [6],increase BrdU incorporation
same,dose at which weight gain was first significant,[7]; i.c.v. infusion for two weeks,62.5 ng/day
same,dose with greatest weight gain,[7]; i.c.v. infusion for two weeks,625 ng/day
same,weight gain,"[7]; i.c.v. infusion of 6.25, 62.5 or 625 ng/day for two weeks",increased in a dose-dependent manner
same,Selectivity (over MC3),MC4R,10-fold
same,Ki,MC4R,3.2 nM
